What was measured:
[1] = molecular target: T1, human 5α-reductase type 1 (Homo sapiens, UniProt P18405); assay type: cell-based
T1 construct: expressed in transfected cells; host or cells: COS1 cells; expression vectors obtained from Dr. David W. Russell
T1 sequence (P18405 1-259): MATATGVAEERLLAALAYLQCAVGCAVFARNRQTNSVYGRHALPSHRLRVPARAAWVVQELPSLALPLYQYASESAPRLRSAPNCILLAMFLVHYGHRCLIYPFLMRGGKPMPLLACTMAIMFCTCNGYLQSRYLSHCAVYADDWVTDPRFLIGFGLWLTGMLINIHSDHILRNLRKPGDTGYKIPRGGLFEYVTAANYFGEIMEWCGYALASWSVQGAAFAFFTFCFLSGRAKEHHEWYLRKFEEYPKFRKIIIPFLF
Description: (§1) Methods: COS1 (American Type Culture Collection, Manassas, Va.) cells were plated in twelve-well plates at a density of 60,000 cells/well and transiently transfected with expression vectors for human 5•-reductase (obtained from Dr. David W. Russell, Southwestern Medical Center, Dallas, Tex.). LipofectAMINE PLUS™ Reagent (Invitrogen, Carlsbad, Calif.) was used for transfection. pCMV•SPORT-•gal plasmid (Invitrogen, Carlsbad, Calif.) was co-transfected to monitor transfection efficiency. Forty-eight hours after transfection, testosterone (4 μM) and/or Compound VI (2 or 200 μM) were added to the medium and incubated at 37° C. Aliquots of the culture medium were removed after 2 hours and the reaction stopped by addition of ice-cold acetonitrile (1:1, vol:vol). Testosterone and Compound VI concentrations in the incubate were determined by HPLC using a reversed-phase column (μBondaPak C18, 3.9×300 mm, Waters Corporation, Milford, Mass.) and a mobile phase of 38% acetonitrile in deionized water at a flow rate of 1.5 ml/min. Analytes were detected by UV absorbance at 254 nm. Calibration curves were prepared using the peak areas to calculate the concentration of testosterone or Compound VI in the incubate at the completion of the reaction. Cells were lysed after the reaction and the cellular supernatant used to determine •-galactosidase activity and ensure equal transfection efficiency between wells.

[2] = molecular target: T2, human 5α-reductase type 2 (Homo sapiens, UniProt P31213); assay type: cell-based
T2 construct: expressed in transfected cells; host or cells: COS1 cells; expression vectors obtained from Dr. David W. Russell
T2 sequence (P31213 1-254): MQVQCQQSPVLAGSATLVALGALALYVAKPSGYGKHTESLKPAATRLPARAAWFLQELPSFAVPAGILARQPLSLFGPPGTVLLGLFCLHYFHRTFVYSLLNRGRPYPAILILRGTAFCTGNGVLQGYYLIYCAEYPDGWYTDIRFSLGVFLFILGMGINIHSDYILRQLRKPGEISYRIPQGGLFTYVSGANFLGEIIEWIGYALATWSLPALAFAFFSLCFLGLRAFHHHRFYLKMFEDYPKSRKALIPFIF
Description: as §1

[3] = test system: male Sprague-Dawley rats (intact, hemi-orchidectomized, castrated); experiment: Plasma testosterone, FSH, LH and osteocalcin in rats of varying hormonal status; assay type: in vivo, rat; conditions: for Plasma FSH levels / Plasma LH levels / Plasma osteocalcin levels / Plasma testosterone levels: 0.5 mg/day osmotic pump, 14 days
Excerpt: (§2) Methods: Compound VI was synthesized and characterized in the laboratory of Dr. Duane Miller at the University of Tennessee, Memphis, Tenn. Male Sprague-Dawley rats were purchased from Harlan Biosciences (Indianapolis, Ind.). The animals were maintained on a 12-h cycle of light and dark with food and water available ad libitum. All animal studies were reviewed and approved by the Animal Care and Use Committee of The Ohio State University, and conformed to the Principles of Laboratory Animal Care. Immature male Sprague-Dawley rats weighing […] were randomly distributed into 9 groups of 5 animals. One day before the initiation of drug treatment, groups 4 through 6 and groups 7 through 9 received unilateral or bilateral orchidectomy, respectively, via a midline scrotal incision. […] All drugs given to animals were freshly prepared as solutions in polyethylene glycol 300 (PEG 300). Groups 4 and 7 received treatment with vehicle alone (i.e., PEG 300). Animals in groups 3, 6, and 9 received testosterone propionate (TP, 0.5 mg/day) via implantation of subdermal osmotic pumps (Model 2002, Durect Corporation, Palo Alto, Calif.). Animals in groups 2, 5, and 8 received Compound VI (0.5 mg/day) via implantation of subdermal osmotic pumps. After 14 days of drug treatment, rats were weighed, anesthetized, and sacrificed. Blood samples were collected by venipuncture of the abdominal aorta. Plasma samples were analyzed for testosterone, FSH, LH and osteocalcin. Testosterone concentrations were measured by AniLytics Inc. (Gaithersburg, Md.). FSH and LH levels were measured by the National Hormone and Peptide Program (Dr. A F Parlow, UCLA, CA). Plasma osteocalcin levels were determined using a commercially available rat osteocalcin EIA kit from Biomedical Technologies Inc. (Stoughton, Mass.). The ventral prostates, seminal vesicles, and levator ani muscle were removed and weighed. Osmotic pumps were also removed from animals to check for correct pump operation. The weights of all organs were normalized to body weight, and analyzed for any statistically significant differences between groups using single-factor ANOVA with the alpha value set a priori at p<0.05. The weights of prostates and seminal vesicles were used as indices for evaluation of androgenic activity, and the levator ani muscle weight was used to evaluate the anabolic activity. Statistical analyses of parameters from complete blood count or serum chemical profiling, wherever applicable, were performed by single-factor ANOVA with the alpha value set a priori at p<0.05.

[4] = test system: male Sprague-Dawley rats (intact, hemi-orchidectomized, castrated); experiment: Prostate, seminal vesicle and levator ani muscle weights in rats of varying hormonal status; assay type: in vivo, rat; conditions: 0.5 mg/day, 14 days
Excerpt: as §2

[5] = test system: intact male Sprague-Dawley rats; experiment: Organ weights in intact male rats after 3, 6 or 9 days of daily subcutaneous injections; assay type: in vivo, rat
Description: Methods: Male Sprague-Dawley rats were purchased from Harlan Biosciences (Indianapolis, Ind.). The animals were maintained on a 12-h cycle of light and dark with food and water available ad libitum. Male Sprague-Dawley rats weighing 189 to 226 g were randomly distributed into groups of 5 animals. The intact male rats were treated with hydroxy-flutamide (0.5, 1, 5, 10 or 25 mg/kg), finasteride (5 mg/kg), Compound VII (0.5, 1, 5, 10, 25 mg/kg) or vehicle for 3, 6, or 9 days. The drugs were dissolved in DMSO:PEG300 (20:80, v:v) and administered via daily subcutaneous injections, and the dosages were adjusted based on animal's body weight, which was measured on a daily basis. A group of castrated rats (n=5) was also included as control for each time point. […] The organ weights were normalized with the body weights. Percentage changes were determined by comparison to intact animals. Statistical analyses of all the parameters were performed by single-factor ANOVA with the alpha value set a priori at p<0.05.

[6] = testosterone 4 μM alone, 2 hours
[7] = all surgical groups, 0.5 mg/day
[8] = Compound VI 2 μM, 2-hour incubation
[9] = testosterone 4 μM, Compound VI 2 μM or 200 μM, 2 hours
[10] = 3 days, all doses (0.5, 1, 5, 10, mg/kg) s.c.

SMILES | Plasma FSH levels ([3]; castrated rats) | Plasma LH levels ([3]; castrated rats) | Plasma osteocalcin levels ([3]; castrated rats) | Plasma testosterone levels ([3]; castrated rats) | Plasma FSH levels ([3]; hemi-orchidectomized rats) | Plasma LH levels ([3]; hemi-orchidectomized rats) | Plasma osteocalcin levels ([3]; hemi-orchidectomized rats) | Plasma testosterone levels ([3]; hemi-orchidectomized rats) | Plasma FSH levels ([3]; intact rats) | Plasma LH levels ([3]; intact rats) | Plasma osteocalcin levels ([3]; intact rats) | Plasma testosterone levels ([3]; intact rats) | Levator ani muscle weight normalized to body weight ([4]; castrated rats) | Prostate weight normalized to body weight ([4]; castrated rats) | Seminal vesicle weight normalized to body weight ([4]; castrated rats) | Levator ani muscle weight normalized to body weight ([4]; hemi-orchidectomized rats) | Prostate weight normalized to body weight ([4]; hemi-orchidectomized rats) | Seminal vesicle weight normalized to body weight ([4]; hemi-orchidectomized rats) | Levator ani muscle weight normalized to body weight ([4]; intact rats) | Prostate weight normalized to body weight ([4]; intact rats) | also measured
C[C@]12CC[C@H]3[C@@H](CCC4=CC(=O)CC[C@@]43C)[C@@H]1CC[C@@H]2O [Testosterone, testosterone, reference compound] |  |  |  |  |  |  |  |  |  |  |  |  |  |  |  |  |  |  |  |  | decrease in testosterone concentration (conversion to DHT) [1, 6]: 34%; decrease in testosterone concentration (conversion to DHT) [2, 6]: 35%
CCC(=O)O[C@H]1CC[C@H]2[C@@H]3CCC4=CC(=O)CC[C@]4(C)[C@H]3CC[C@]12C [TP, testosterone propionate, reference compound] | 58.0 ± 6.9 † ‡ ng/ml | 6.702 ± 1.513 ‡ ng/ml | 65.976 ± 11.213 ng/mL | 0.258 ± 0.103 † ‡ ng/ml | 17.2 ± 3.3 ng/mL | 0.124 ± 0.092 ng/mL | 77.236 ± 24.418 ng/mL | 2.366 ± 1.232 ng/mL | 11.4 ± 1.7 ng/mL | 0.168 ± 0.173 ng/mL | 74.952 ± 15.399 ng/mL | 1.482 ± 0.416 ng/mL | 87.27 ± 10.25 % of intact control | 76.78 ± 10.43 % of intact control | 63.48 ± 17.05 % of intact control | 98.63 ± 10.47 % of intact control | 98.57 ± 7.98 % of intact control | 114.19 ± 23.81 % of intact control | 95.61 ± 9.34 % of intact control | 97.45 ± 10.82 % of intact control | effect on plasma osteocalcin levels [3, 7]: no effect; effect on plasma FSH and LH levels ([3]; castrated male rats, 0.5 mg/day): significant decrease; Seminal vesicle weight normalized to body weight ([4]; intact rats): 103.95 ± 13.23 % of intact control
CC(=O)Nc1ccc(OC[C@](C)(O)C(=O)Nc2ccc([N+](=O)[O-])c(C(F)(F)F)c2)cc1 [Compound VI] | 69.6 ± 11.7 ‡ ng/ml | 8.644 ± 2.799 ‡ ng/ml | 94.215 ± 12.568 ng/mL | 0.066 ± 0.148 ‡ ng/ml | 15.2 ± 2.2 ng/mL | 0.124 ± 0.115 ng/mL | 89.804 ± 15.517 ng/mL | 1.404 ± 0.810 ng/mL | 14.4 ± 1.7 ng/mL | 0.026 ± 0.037 ng/mL | 55.584 ± 9.715 ng/mL | 1.830 ± 0.510 ng/mL | 100.65 ± 10.86 % of intact control | 32.55 ± 11.65 % of intact control | 16.47 ± 5.21 % of intact control | 108.10 ± 8.92 % of intact control | 74.69 ± 8.44 % of intact control | 78.55 ± 13.58 % of intact control | 109.15 ± 14.68 % of intact control | 79 % of intact control | type of inhibition of 5α-reductase type 1 [1]: competitive inhibitor; metabolism of Compound VI by 5α-reductase type 1 [1, 8]: not metabolized; decrease in testosterone concentration in the presence of Compound VI [1, 9]: less than 10%; type of inhibition of 5α-reductase type 2 [2]: competitive inhibitor; metabolism of Compound VI by 5α-reductase type 2 [2, 8]: not metabolized; decrease in testosterone concentration in the presence of Compound VI [2, 9]: less than 10%; effect on plasma FSH and LH levels [3, 7]: no effect; effect on plasma osteocalcin levels ([3]; hemi-orchidectomized and castrated animals, 0.5 mg/day): significant increase; effect on plasma testosterone levels ([3]; intact, hemi-orchidectomized or castrated male rats, 0.5 mg/day): did not affect; size of the levator ani muscle ([4]; hemi-orchidectomized rats): 108 % of that observed in untreated hemi-orchidectomized animals; size of the prostate ([4]; hemi-orchidectomized rats): 75 % of that observed in untreated hemi-orchidectomized animals; size of the seminal vesicles ([4]; hemi-orchidectomized rats): 79 % of that observed in untreated hemi-orchidectomized animals; Seminal vesicle weight normalized to body weight ([4]; intact rats): 90.54 ± 12.10 % of intact control; changes in the size of the seminal vesicles or levator ani muscle ([4]; intact rats): no statistically significant changes; Prostate weight normalized to body weight ([4]; intact rats, listed as COMPOUND VI): 79.41 ± 9.32 % of intact control; adverse pharmacologic effects ([4]; rats): No adverse pharmacologic effects were observed
CC(C)(O)C(=O)Nc1ccc([N+](=O)[O-])c(C(F)(F)F)c1 [hydroxy-flutamide] |  |  |  |  |  |  |  |  |  |  |  |  |  |  |  |  |  |  |  |  | levator ani muscle weight (compared to intact animals) [5, 10]: ~85%; prostate weight (normalized to body weight, compared to intact animals) [5, 10]: approximately 60%; seminal vesicle weight (compared to intact animals) [5, 10]: ~50%; levator ani muscle weight (compared to intact animals) ([5]; 6 days, 25 mg/kg s.c.): 65%; prostate weight (compared to intact animals) ([5]; 6 days, 25 mg/kg s.c.): 54%; seminal vesicle weight (compared to intact animals) ([5]; 6 days, 25 mg/kg s.c.): 41%; organ weights (prostate, seminal vesicle, levator ani muscle) ([5]; 6 days, lower dose groups (0.5, 1, 5, 10 mg/kg) s.c.): returned to the levels observed in intact animals; effects on all the organ weights compared to previous time points ([5]; 9 days, 25 mg/kg s.c.): maintained its effects on all the organ weights at a similar level; changes in prostate, seminal vesicle and levator ani muscle weights ([5]; 9 days, lower doses (0.5, 1, 5, 10 mg/kg) s.c., dose-dependent): moderate decreases
CC(C)(C)NC(=O)[C@H]1CC[C@H]2[C@@H]3CC[C@H]4NC(=O)C=C[C@]4(C)[C@H]3CC[C@]12C [finasteride] |  |  |  |  |  |  |  |  |  |  |  |  |  |  |  |  |  |  |  |  | effect on levator ani muscle weight ([5]; 3 days, 5 mg/kg s.c.): no effect; prostate weight (compared to intact animals) ([5]; 3 days, 5 mg/kg s.c.): 59%; seminal vesicle weight (compared to intact animals) ([5]; 3 days, 5 mg/kg s.c.): 38%; changes in levator ani muscle weight ([5]; 6 days, 5 mg/kg s.c.): no significant changes; prostate weight (compared to intact animals) ([5]; 6 days, 5 mg/kg s.c.): 67%; seminal vesicle weight (compared to intact animals) ([5]; 6 days, 5 mg/kg s.c.): 47%; change in levator ani muscle weight ([5]; 9 days, 5 mg/kg s.c.): not significantly changed; prostate weight (compared to intact animals) ([5]; 9 days, 5 mg/kg s.c.): 55%; seminal vesicle weight (compared to intact animals) ([5]; 9 days, 5 mg/kg s.c.): 29%

Reference: patent US8088828B2, “Treating benign prostate hyperplasia with SARMS” (priority 2002, dated 2012)
